In US11578079B2, “SUMO inhibitor compounds and uses thereof” (CITY OF HOPE, priority 2018, dated 2023):

Assays:
[1] = target: T1, SUMO (Homo sapiens, UniProt Q9UBT2); assay: SUMO activity (Table I, biological activities); format: biochemical; set-up: key: + (less active); ++ (active); +++ (most active)
T1 sequence (Q9UBT2 1-640): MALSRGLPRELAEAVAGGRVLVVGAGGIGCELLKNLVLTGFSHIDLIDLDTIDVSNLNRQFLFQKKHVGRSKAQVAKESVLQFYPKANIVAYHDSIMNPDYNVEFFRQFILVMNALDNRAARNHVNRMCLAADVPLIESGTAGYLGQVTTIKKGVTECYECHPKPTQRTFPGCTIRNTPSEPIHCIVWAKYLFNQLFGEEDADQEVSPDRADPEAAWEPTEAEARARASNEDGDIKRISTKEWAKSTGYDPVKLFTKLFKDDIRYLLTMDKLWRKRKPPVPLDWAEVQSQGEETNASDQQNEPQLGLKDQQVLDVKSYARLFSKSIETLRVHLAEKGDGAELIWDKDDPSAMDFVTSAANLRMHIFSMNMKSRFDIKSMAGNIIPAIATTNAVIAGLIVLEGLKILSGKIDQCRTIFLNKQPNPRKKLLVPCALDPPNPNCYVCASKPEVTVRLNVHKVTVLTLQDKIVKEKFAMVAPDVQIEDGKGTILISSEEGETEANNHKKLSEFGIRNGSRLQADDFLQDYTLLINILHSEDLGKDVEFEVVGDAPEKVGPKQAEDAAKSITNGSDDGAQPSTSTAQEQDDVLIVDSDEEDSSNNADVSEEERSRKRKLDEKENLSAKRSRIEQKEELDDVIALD
T1 sequence (Q9UBE0 1-346 partner): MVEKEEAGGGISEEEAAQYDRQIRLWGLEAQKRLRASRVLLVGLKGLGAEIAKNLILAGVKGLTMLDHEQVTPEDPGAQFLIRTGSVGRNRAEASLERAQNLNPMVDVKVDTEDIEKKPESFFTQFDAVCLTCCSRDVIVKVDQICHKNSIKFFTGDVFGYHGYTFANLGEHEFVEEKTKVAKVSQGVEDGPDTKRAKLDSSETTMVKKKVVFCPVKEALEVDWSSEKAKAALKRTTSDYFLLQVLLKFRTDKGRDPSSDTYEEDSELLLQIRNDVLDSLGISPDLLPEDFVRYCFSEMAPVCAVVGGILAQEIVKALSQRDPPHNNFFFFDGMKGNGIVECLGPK

[2] = system: c-Myc; assay: c-Myc activity (Table I, biological activities); set-up: key: + (less active); ++ (active); +++ (most active)

Row | SMILES | SUMO [1] | c-Myc [2]
1 | CCOC(=O)C1=C(C(=O)NCCN(CC)CC)C2C=CC1(C(Cc1ccccc1)Nc1c(F)cccc1F)O2 (centres unmarked) [Compound 434] | ++ | ++
2 | COC(=O)C1=C(C(=O)N(C)CCN(C)C)C2C=CC1(C(Cc1ccccc1)Nc1ccccc1)O2 (centres unmarked) [Compound 388] | + | +
3 | COC(=O)C1=C(C(=O)Nc2ccc(OC)cc2OC)C2C=CC1(C(Cc1ccccc1)Nc1ccccc1)O2 (centres unmarked) [Compound 353] | + | +
4 | Cc1ccc(S(=O)(=O)C2=CC3(C4OCCO4)C=CC2O3)cc1 (centres unmarked) [Compound 516] | ++ | +
5 | COC(=O)C1=C(C(=O)NC2CCN(C)CC2)C2C=CC1(C(Cc1ccccc1)Nc1ccccc1)O2 (centres unmarked) [Compound 195] | +++ | ++
6 | COC(=O)C1=C(C(=O)Nc2ccc(N3CCN(C)CC3)c(F)c2)C2C=CC1(C(Cc1ccccc1)Nc1ccccc1)O2 (centres unmarked) [Compound 494] | + | +
7 | COC(=O)C1=C(C(=O)OC)C2(C(Cc3ccccc3)N(C(=O)C(F)(F)F)c3ccccc3)OC1C1=C2O1 (centres unmarked) [Compound 555] | + | +
8 | COC(=O)C1=C(C(=O)NNc2ccccc2)C2C=CC1(C(Cc1ccccc1)Nc1cc(F)cc(Cl)c1)O2 (centres unmarked) [Compound 215] | ++ | +
9 | CCOC(=O)C1=C(C(=O)Nc2ccc(C)c(F)c2)C2C=CC1(C(Oc1ccc(F)cc1)c1ccc(CN3CCOCC3)cc1)O2 (centres unmarked) [Compound 486] | + | ++
10 | COC(=O)C1=C(C(=O)NC2CCN(C(=O)c3cncnc3)CC2)C2C=CC1(C(Cc1ccccc1)Nc1ccccc1)O2 (centres unmarked) [Compound 390] | ++ | +
11 | COC(=O)C1=C(C(=O)Nc2cnc(C)nc2)C2C=CC1(C(Cc1ccccc1)Oc1ccccc1)O2 (centres unmarked) [Compound 480] | ++ | +
12 | CCCCC(Nc1cc(F)cc(F)c1)C12C=CC(O1)C(C(=O)NC1CCN(C)CC1)=C2C(=O)OC (centres unmarked) [Compound 266] | +++ | +
13 | COC(=O)C1=C(C(=O)OC)C2(C(Cc3ccc(F)cc3)Nc3ccccc3)C=CC1O2 (centres unmarked) [Compound 445] | ++ | +
14 | COC(=O)C1=C(C(=O)NC2CCN(C)CC2)C2C=CC1(C(Cc1ccccc1)Nc1cc(F)cc(F)c1)O2 (centres unmarked) [Compound 240] | ++ | +
15 | CCN(CC)CCNC(=O)C1=C(C(=O)OC)C2(C(Cc3cccc(F)c3)Nc3cc(F)cc(F)c3)C=CC1O2 (centres unmarked) [Compound 436] | +++ | ++
16 | COC(=O)C1=C(C(=O)NC2CCN(C(C)=O)CC2)C2CCC1(C(Cc1ccccc1)Nc1ccccc1)O2 (centres unmarked) [Compound 368] | + | +
17 | C=CCCC(Nc1ccccc1)C12C=CC(O1)C(C(=O)Nc1ccc(OC)cc1)=C2C(=O)OC (centres unmarked) [Compound 176] | ++ | +
18 | COC(=O)C1=C(C(=O)NC2CCN(C(=O)c3ccsc3)CC2)C2C=CC1(C(Cc1ccccc1)Nc1ccccc1)O2 (centres unmarked) [Compound 383] | ++ | +
19 | CCOC(=O)C1=C(C(=O)Nc2ccc(C)c(F)c2)C2C=CC1(C(Nc1ccc(C)cc1)c1ccc(CN3CCOCC3)cc1)O2 (centres unmarked) [Compound 613] | + | +
20 | COC(=O)C1=C(C(=O)NC(C)C(N)=O)C2C=CC1(C(Cc1ccccc1)Nc1cc(F)cc(F)c1)O2 (centres unmarked) [Compound 243] | ++ | +
21 | COC(=O)C1=C(C(=O)NC2CCN(CCO)CC2)C2C=CC1(C(Cc1ccccc1)Nc1ccccc1)O2 (centres unmarked) [Compound 279] | +++ | ++
22 | COC(=O)C1=C(C(=O)Nc2ccc(OC)nc2)C2C=CC1(C(Cc1ccccc1)Nc1cc(F)cc(Cl)c1)O2 (centres unmarked) [Compound 218] | +++ | +

Row | SMILES | SUMO [1] | c-Myc [2]
23 | CCN(CC)CCNC(=O)C1=C(C(=O)OC)C2(C(Cc3ccccc3)Nc3c(F)cccc3F)C=CC1O2 (centres unmarked) [Compound 433] | ++ | +
24 | COC(=O)C1=C(C(=O)NCCN(C)C)C2C=CC1(C(Cc1ccccc1)Nc1cccc(F)c1)O2 (centres unmarked) [Compound 420] | ++ | ++
25 | COC(=O)C1=C(C(=O)NC2CCN(C)C2)C2C=CC1(C(Cc1ccccc1)Nc1cc(F)cc(Cl)c1)O2 (centres unmarked) [Compound 238] | +++ | ++
26 | CCOC(=O)C1=C(C(=O)Nc2cccnc2)C2C=CC1(C(Nc1ccccc1)c1ccc(CN3CCOCC3)cc1)O2 (centres unmarked) [Compound 550] | +++ | +
27 | COC(=O)C1=C(C(=O)NNc2cc(C(F)(F)F)cc(C(F)(F)F)c2)C2(C(Cc3ccccc3)Nc3cc(F)cc(F)c3)C=CC1O2 (centres unmarked) [Compound 316] | ++ | +
28 | COC(=O)C1=C(C(=O)Nc2cnc(C)nc2)C2C=CC1(C(Cc1ccccc1)Nc1ccccc1)O2 (centres unmarked) [Compound 478] | +++ | +
29 | CCCCC(Nc1cc(F)cc(F)c1)C12C=CC(O1)C(C(=O)OC)=C2C(=O)OC (centres unmarked) [Compound 212] | +++ | +
30 | COC(=O)C1=C(C(=O)NC2CCN(C(=O)c3ccc(F)cc3)CC2)C2C=CC1(C(Cc1ccccc1)Nc1ccccc1)O2 (centres unmarked) [Compound 297] | ++ | ++
31 | COC(=O)C1=C(C(=O)NCC2CCCN2C)C2C=CC1(C(Cc1ccccc1)Nc1ccccc1)O2 (centres unmarked) [Compound 418] | ++ | ++
32 | CCOC(=O)C1=C(C(=O)N(C)C)C2C=CC1(C(Nc1ccccc1)c1ccc(CN3CCOCC3)cc1)O2 (centres unmarked) [Compound 590] | + | +
33 | CCN(CC)CCNC(=O)C1=C(C(=O)OC)C2(C(Cc3ccccc3)Nc3cc(F)cc(Cl)c3)C=CC1O2 (centres unmarked) [Compound 376] | +++ | ++
34 | CCN(CC)CCNC(=O)C1=C(C(=O)OC)C2(C(Cc3ccccc3F)Nc3cc(F)cc(F)c3)C=CC1O2 (centres unmarked) [Compound 456] | ++ | ++
35 | CCOC(=O)C1=C(C(=O)OCC)C2(C(Cc3ccccc3)Nc3ccccc3)C=CC1(C)O2 (centres unmarked) [Compound 260] | ++ | +
36 | COC(=O)C1=C(C(=O)NNc2ccc(F)c(F)c2)C2C=CC1(C(Cc1ccccc1)Nc1cc(F)cc(F)c1)O2 (centres unmarked) [Compound 314] | ++ | +
37 | COC(=O)C1=C(C(=O)Nc2ccc(C)c(F)c2)C2C=CC1(C(Cc1ccccc1)Nc1ccccc1)O2 (centres unmarked) [Compound 285] | ++ | ++
38 | COC(=O)C1=C(C(=O)OC)C2(C(Nc3ccccc3)C3CCCC3)C=CC1O2 (centres unmarked) [Compound 186] | ++ | +
39 | COC(=O)C1=C(C(=O)OC)C2(C(Cc3ccccc3)Oc3ccccc3)OC1C1OC12 (centres unmarked) [Compound 515] | ++ | +
40 | COC(=O)C1=C(C(=O)NCCN2CCOCC2)C2C=CC1(C(Cc1ccccc1)Nc1cc(F)cc(Cl)c1)O2 (centres unmarked) [Compound 226] | +++ | ++
41 | COC(=O)C1=C(C(=O)O)C2C=CC1(C(Cc1ccccc1)Nc1cc(F)cc(Cl)c1)O2 (centres unmarked) [Compound 214] | ++ | +
42 | COC(=O)C1=C(C(=O)NC2CCN(C(=O)c3cccc(F)c3)CC2)C2C=CC1(C(Cc1ccccc1)Nc1ccccc1)O2 (centres unmarked) [Compound 386] | ++ | +
43 | COC(=O)C1=C(C(=O)NCCN(C)C)C2C=CC1(C(Cc1cccc(F)c1)Nc1cc(F)cc(F)c1)O2 (centres unmarked) [Compound 435] | +++ | ++
